Assay results published in patent publication US8349553B2, “Jasmonate based assays for identifying compounds that selectively inhibit mitochondrial bound hexokinases” (Ramot at Tel Aviv University Ltd., priority 2007, dated 2013).

Tests used:
BCL-1 leukemic cells = assay: Cellular ATP levels (CellTiter-Glo), BCL-1; format: cell-based, murine; settings: 60 minutes of exposure, various concentrations
Method: (§1) The CellTiter-Glo™ Luminescent Cell Viability Assay (Promega, Madison, Wis., U.S.A.) was employed (Fingrut, 2005). Upon completion of a given experiment, plates were equilibrated to room temperature. CellTiter-Glo™ reagent containing luciferin and luciferase was added to each well and the plates were mixed on an orbital shaker for 2 minutes to induce cell lysis. In the presence of ATP, Mg^2+ and molecular oxygen, mono-oxidation of luciferin is catalyzed by luciferase, generating a luminescence signal. Cells were then incubated for 10 minutes at room temperature to stabilize the luminescence signal. Luminescence was recorded using Kodak digital science—Image station 440 CD. Luminescence is directly proportional to ATP concentration. ATP depletion (% of control) was calculated in the following way: {(luminescence of control cells−luminescence of drug-treated cells)/luminescence of control cells}×100. In order to test the correlation between cellular ATP levels and the release of hexokinase from mitochondrial fraction different cancer cells, namely Molt-4 cells, BCL-1 leukemic cells and B16 melanoma tumors were exposed to various methyl jasmonate concentrations. […] CT26 and Molt-4 cells were then seeded in 24 well plates. CT26 cells were allowed to adhere over night. Cells were exposed to methyl jasmonate (MJ; 3 mM) for 1 hour. Trypan blue exclusion test was performed and cells were counted.

[1] = test system: rabbit immunoglobulin G (Rb IgG); assay: Surface plasmon resonance, irrelevant protein control; format: binding; settings: 6 mM and 3 mM
Method: SPR using ProteOn-EP5 (Bio-Rad, Hercules, Calif., USA) system has been applied to study the direct interaction of methyl jasmonate with hexokinase. This system allowed measuring ligand-analyte interactions in a 6×6 format in real time. Purified rat brain HKI and rabbit immunoglobulin G (Rb IgG; ligands) were diluted in 10 mM Na acetate pH 4 and 4.5, respectively, and coupled to a GLM sensor surface activated with 37.5 mg/ml N-Ethyl-N′-(3′ dimethylaminopropyl) carbodiimide hydrochloride and 7.5 mg/ml N-hydroxysuccinimide. HKI and IgG were added to saturate the chip at 100 μg/ml. Remaining reactive groups on the chip were then inactivated with 1 M ethanolamine pH 8.5. […] Methyl jasmonate and jasmonic acid (analytes) were diluted in running buffer (PBS X 1 with 0.005% Tween and 5% DMSO) and injected onto the sensor chip at varying concentrations. All experiments were performed at flow rate of 50 μl/min, at 25° C.

[2] = test system: HKI and HKII (mitochondrial fraction of CT-26 tumor); assay: Western blot of supernatants with anti-HKI and anti-HKII, CT-26 tumor mitochondrial fraction; format: biochemical, murine
Method: For analysis of hexokinase levels, the experiments were performed similarly to hexokinase detachment assay described above, and unbound hexokinase in the supernatant fraction was extracted as described in Fingrut (2005). Samples were separated by sodium dodecylsulfate-polyacrylamide gel (7%) electrophoresis followed by immunoblotting. The blots were probed with specific anti-HKI or anti-HKII antibodies (1:300, Santa-Cruz Biotechnology, CA, USA). Hexokinase-antibody complexes were stained with HRP-conjugated antibody (1:10,000, Santa-Cruz Biotechnology, CA, USA). Enhanced chemiluminescence (ECL) reagent (Biological Industries, Beit Haemek, Israel) was added, and the blots were exposed to ECL film (Eastman Kodak, Rochester, N.Y., USA). In order to verify physical detachment of mitochondrial hexokinase, similar preparations were separated on SDS-PAGE, electroblotted to nitrocellulose membrane and probed with anti-HKI and anti-HKII antibodies.

[3] = test system: mitochondria-bound hexokinase (mitochondrial fraction of Molt-4 cells); assay: Hexokinase detachment assay, mitochondrial fraction of Molt-4 cells; format: biochemical, human; settings: Molt-4 mitochondrial fraction; 30 minutes at 37° C.
Method: Mitochondrial fraction was prepared by mechanical lysis and differential centrifugation. All stages were performed on ice. Cells or extracted tissues were washed with PBS and disrupted by homogenization in extraction buffer (Sucrose 250 mM, HEPES-NaOH 10 mM, pH 7.2) freshly supplemented with 0.1 mM EDTA and Protease Inhibitors cocktail (Sigma). For each gram of cells or tissue, 4 volumes of extraction buffer were applied. The homogenate volume was doubled with the extraction buffer, and tissue and cell debris as well as nuclei were pelleted by centrifugation of 1,000 g for 10 minutes. The supernatant was further spun at 13,000 g for 10 minutes twice. Endoplasmic reticulum layer was removed. The pellet, designated as the mitochondrial fraction, was suspended in the appropriate buffer, depending on the assay for which the mitochondrial fraction was prepared. Mitochondrial fractions were used immediately or stored at −196° C. […] Activity of hexokinase in the supernatant (i.e., activity of the detached hexokinase) was determined spectrophotometrically at 340 nm. […] Mitochondrial fractions isolated from different cancer cells, namely Molt-4 cells, BCL-1 leukemic cells and B16 melanoma tumors were incubated for 30 minutes at 37° C., and the activity of unbound hexokinase was measured and compared to the activity of spontaneously (control) detached hexokinase. […]

lymphomas = settings: mice; cited from earlier work
hexokinase = assay: Hexokinase activity, agent added directly to the coupled assay mixture; format: biochemical; settings: coupled pyruvate kinase/lactate dehydrogenase assay, 340 nm
B16 melanoma = assay: Cellular ATP levels (CellTiter-Glo), B16; format: cell-based, murine; settings: 60 minutes of exposure, various concentrations
Method: as §1

For `CC/C=C\CC1C(=O)CCC1CC(=O)OC` (stereo not shown) [methyl jasmonate], the “cellular ATP level” value (BCL-1 leukemic cells) was “significant and dose-dependent decrease of cellular ATP”, the “binding to immobilized Rb IgG (SPR)” value [1] was “binds to hexokinase but not to Rb IgG” and the “physical release of HKI and HKII into supernatant (immunoblot)” value [2] was “release of both HKI and HKII were demonstrated”. For the same compound, the “detachment of hexokinase (activity of unbound hexokinase compared to control)” value [3] was “detached hexokinase from mitochondrial fraction isolated from the three different cancer cells”, the “prevention of the development of lymphomas” value (lymphomas) was “effective in preventing the development of lymphomas in mice” and the “influence on hexokinase activity when added directly to the assay mixture” value (hexokinase) was “neither methyl jasmonate nor jasmonic acid added directly to the assay mixture, influence hexokinase activity”. For the same compound, the “cellular ATP level” value (B16 melanoma) was “significant and dose-dependent decrease of cellular ATP”.
